Article PMC11768251, “Τhiazolidine-4-One Derivatives with Variable Modes of Inhibitory Action Against DPP4, a Drug Target with Multiple Activities and Established Role in Diabetes Mellitus Type II” (Pharmaceuticals, 2025)
Like-named read-outs stand apart in the source and are kept apart here.

Experiments:
[1] = target: T1, DPP4 (Homo sapiens, UniProt P27487); assay: Inhibition kinetic analysis of DPP4 (Lineweaver–Burk plot); type: biochemical; conditions: for Κm of the enzyme in the presence of the compound: without compound 49.7 ± 3.8; for Inhibition Mode: from Lineweaver–Burk plot, substrate 17–80 μM
Experimental: To further investigate the mode of inhibition, Lineweaver–Burk curves were prepared for some of the compounds.
The concentration range of the substrate (H-Gly-Pro-AMC) was 17–80 μM, and the final concentration of DPP-4 was 0.17 µg/mL. The maximum enzymatic reaction rate (Vmax) and Michaelis constant (Km) were calculated according to the Lineweaver–Burk plot.

[2] = target: T1, DPP4; assay: In vitro DPP4 inhibition assay, fluorometric, H-Gly-Pro-amidomethyl coumarin substrate; conditions: for logIC50: Figure 4, competitive inhibitors
Experimental: The compounds were screened for their inhibitory activity against DPP4 by a fluorometric assay, measuring the hydrolysis rate of the substrate Gly-Pro-amidomethyl coumarin in the absence and presence of the inhibitor. […] DPP-4 activity was assessed by measuring the hydrolysis rate of the substrate H-Gly-Pro-amidomethyl coumarin. The resulting fluorescent product, 7-Amino-4-Methyl Coumarin (AMC), was monitored with a Tecan Pro2000 microplate fluorescence reader (Tecan Ltd, Zurich, Switzerland) at an excitation wavelength of 360 nm and an emission wavelength of 460 nm, with measurements taken every 60 s for 30 min. The inhibitors, dissolved in DMSO, were added to the reaction buffer (20 mM Tris-HCl, pH 8, 100 mM NaCl, and 1 mM EDTA) at 10 µL per reaction, along with 0.17 µg/mL of enzyme, and incubated for 10 min. After incubation, 50 µL of the appropriate substrate concentration was added, bringing the total reaction volume to 100 µL. The inhibition (%) was calculated as ((Fc − Fi)/Fc) × 100, where Fc is the fluorescence value of the control (no inhibitor-total activity) and Fi is the fluorescence value in the presence of the inhibitor. […] The volume of 10 μL DMSO was added to the total activity control instead of the inhibitor. A blank containing all other components except for the enzyme was abstracted in all cases. Each determination was performed in triplicate.

[3] = cited from earlier work
[4] = compound concentration 15.000 μΜ
[5] = read-out: % Inhibition, 50 μΜ Substrate
[6] = read-out: % Inhibition, 100 μΜ Substrate
[7] = compound concentration 0.100 μΜ
[8] = compound concentration 0.080 μΜ

T1 sequence (P27487 whole entry): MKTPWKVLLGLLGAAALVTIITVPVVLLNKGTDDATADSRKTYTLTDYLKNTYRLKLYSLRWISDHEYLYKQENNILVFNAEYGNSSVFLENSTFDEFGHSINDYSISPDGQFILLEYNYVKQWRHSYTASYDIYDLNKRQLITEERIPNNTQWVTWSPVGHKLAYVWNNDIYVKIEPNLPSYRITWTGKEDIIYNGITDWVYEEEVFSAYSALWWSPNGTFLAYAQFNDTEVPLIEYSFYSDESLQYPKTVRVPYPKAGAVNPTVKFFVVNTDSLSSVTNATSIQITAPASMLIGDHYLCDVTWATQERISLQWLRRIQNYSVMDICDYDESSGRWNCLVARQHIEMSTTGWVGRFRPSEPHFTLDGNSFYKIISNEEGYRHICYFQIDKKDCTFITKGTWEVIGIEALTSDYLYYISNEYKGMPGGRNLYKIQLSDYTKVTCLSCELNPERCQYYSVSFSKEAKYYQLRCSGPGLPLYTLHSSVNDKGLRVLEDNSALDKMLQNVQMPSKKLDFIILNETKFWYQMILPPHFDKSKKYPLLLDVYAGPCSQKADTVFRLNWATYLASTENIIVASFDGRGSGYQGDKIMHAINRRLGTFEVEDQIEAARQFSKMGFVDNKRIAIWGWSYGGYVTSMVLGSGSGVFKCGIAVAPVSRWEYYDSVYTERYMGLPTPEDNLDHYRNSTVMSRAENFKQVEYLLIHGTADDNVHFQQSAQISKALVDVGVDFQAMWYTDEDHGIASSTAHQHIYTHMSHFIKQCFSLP

| SMILES | Inhibition Mode [1] | IC50 ([2]; IC50, DPP4, triplicate) [nM] | inhibition at 0.08 µM [2, 5] [%] | inhibition at 0.08 µM [2, 6] [%] | other results |
| --- | --- | --- | --- | --- | --- |
| O=C1CSC(c2ccc([N+](=O)[O-])cc2)N1c1nc2ccc(Cl)cc2s1 (stereo not shown) [c2] | competitive | 8600 ± 200 |  |  | Κm of the enzyme in the presence of the compound [1, 4]: 87.6 ± 4.8; inhibition at 10 µM [2, 5]: 66%; inhibition at 10 µM [2, 6]: 14.1% |
| O=C1CSC(c2ccc(Cl)cc2)N1c1nc2ccc(Cl)cc2s1 (stereo not shown) [c3] |  | 12500 ± 200 |  |  | logIC50 [2]: 4.097; inhibition at 10 µM [2, 5]: 41.6%; inhibition at 10 µM [2, 6]: 28% |
| O=C1CSC(c2ccc([N+](=O)[O-])cc2)N1c1nc2ccc(OC(F)(F)F)cc2s1 (stereo not shown) [h7] |  | 25.5 ± 3 | 67 | 55 |  |
| O=C1CSC(c2ccc(O)cc2)N1c1nc2ccc(OC(F)(F)F)cc2s1 (stereo not shown) [h10] |  | > 100 | 38 | 0 |  |
| O=C1CSC(c2ccc(Cl)cc2Cl)N1c1nc2ccc(OC(F)(F)F)cc2s1 (stereo not shown) [h5] |  | 23.7 ± 2 | 45 | 14 |  |
| O=C1CSC(c2c(Cl)cccc2Cl)N1c1nc2ccc(OC(F)(F)F)cc2s1 (stereo not shown) [h1] |  | 31 ± 3.8 | 79.8 | 12 | logIC50 [2]: 1.491 |
| COc1ccc(C2SCC(=O)N2c2nc3ccc(OC(F)(F)F)cc3s2)cc1 (stereo not shown) [h9] | mixed | 72.3 ± 5.2 | 52.3 | 37.6 |  |
| Cc1cc(C23CC4CC(CC(C4)C2)C3)cc2sc(N3C(=O)CSC3c3c(Cl)cccc3Cl)nc12 (stereo not shown) [n1, 3-(4-CH3,6-Ad-benzo[d]thiazol-2-yl)-2-(2,6-di-Cl-phenyl) thiazolidin-4-one] | non-competitive | 137 ± 4.6 | 36.8 | 37.2 | Κm of the enzyme in the presence of the compound [1, 7]: 49.8 ± 0.6 |
| O=C1CSC(c2cccc(Cl)c2Cl)N1c1nc2ccc(OC(F)(F)F)cc2s1 (stereo not shown) [h4] | competitive | 27 ± 0.5 | 84.4 | 12.1 | Κm of the enzyme in the presence of the compound [1, 8]: 98 ± 26.9; logIC50 [2]: 1.431 |
| COc1ccc(C2SCC(=O)N2c2nc3ccc(Cl)cc3s2)cc1 (stereo not shown) [c4] | uncompetitive | 11500 ± 1500 |  |  | Κm of the enzyme in the presence of the compound [1, 4]: 19.4 ± 9.3; inhibition at 10 µM [2, 5]: 48.5%; inhibition at 10 µM [2, 6]: 68.5% |
| O=C1CSC(c2c(F)cccc2Cl)N1c1nc2ccc(C34CC5CC(CC(C5)C3)C4)cc2s1 (stereo not shown) [m2, 3-(6-Ad-benzo[d]thiazol-2-yl)-2-(2-F,6-Cl-phenyl) thiazolidin-4-one] | uncompetitive | 71.5 ± 8.3 | 52 | 69.7 | Κm of the enzyme in the presence of the compound ([1]; compound concentration 0.060 μΜ): 30.6 ± 2.7 |
| CC#CCn1c(N2CCC[C@@H](N)C2)nc2c1c(=O)n(Cc1nc(C)c3ccccc3n1)c(=O)n2C [linagliptin] |  |  |  |  | excreted unmodified in the feces [3]: 87% |
| Cc1cc(C23CC4CC(CC(C4)C2)C3)cc2sc(N3C(=O)CSC3c3c(F)cccc3F)nc12 (stereo not shown) [n2] | competitive | 48.3 ± 5.2 | 66.3 | 0 | Κm of the enzyme in the presence of the compound [1, 7]: 117.2 ± 1.5; logIC50 [2]: 1.681; IC50 ([2]; IC50 (as printed in Figure 4), printed in the picture of Figure 4 without unit): 48 nM |
| O=C1CSC(c2ccc(Cl)cc2)N1c1nc2ccc(OC(F)(F)F)cc2s1 (stereo not shown) [h8] | mixed | 90.6 ± 8.8 | 45 | 26 | Κm of the enzyme in the presence of the compound [1, 8]: 167.9 ± 15.8 |
| O=C1CSC(c2ccc(F)cc2)N1c1nc2ccc(OC(F)(F)F)cc2s1 (stereo not shown) [h6] |  | > 100 | 46.8 | 0 |  |
| O=C1CSC(c2c(F)cccc2Cl)N1c1nc2ccc(OC(F)(F)F)cc2s1 (stereo not shown) [h3, 3-(6-OCF3-benzo[d]thiazol-2-yl)-2-(2-F,6-Cl-phenyl) thiazolidin-4-one] | competitive | 12 ± 0.5 | 62 | 20 | Κm of the enzyme in the presence of the compound ([1]; compound concentration 0.010 μΜ): 103.1 ± 9.3; logIC50 [2]: 1.079 |
| N[C@@H](CC(=O)N1CCn2c(nnc2C(F)(F)F)C1)Cc1cc(F)c(F)cc1F [sitagliptin] |  |  |  |  | ends unmodified in the urine [3]: 79% |
| O=C1CSC(c2ccc(F)cc2)N1c1nc2ccc(Cl)cc2s1 (stereo not shown) [c1] |  | > 20000 |  |  | inhibition at 10 µM [2, 5]: 33.5%; inhibition at 10 µM [2, 6]: 11.4% |
